{"source": "patent US12257367B2", "about": "“Biomaterials for biological tissue repair” (KONAN GAKUEN, priority 2019, dated 2025)", "key": {"[1]": {"system": "mouse myoblasts (C2C12 cells)", "assay": "Cytotoxicity test of Ac4ManNAz by WST-1 assay", "type": "cell-based", "protocol": "In order to examine the cytotoxicity of the synthesized Ac4ManNAz, mouse myoblasts (C2C12 cells) were used to evaluate toxicity to cells by WST-1 assay. The cells were seeded in a 96-well plate at 1×10^4 cells/well, to which a predetermined amount of Ac4ManNAz dissolved in a DMEM medium (final concentrations of 0, 0.0001, 0.001, 0.01, 0.1 and 1 mM) was added to culture the resultant in a CO2 incubator at 37° C. for one day. To each well, 10 μL of a WST-1 solution (WST-1:1-Methoxy PMS=9:1) was added to allow reaction in the CO2 incubator for 2 hours. Thereafter, absorbance was determined with a microplate reader. Cell viability was calculated from the absorbance."}, "[2]": {"system": "mouse tissues (lung, cardiac muscle, skeletal muscle, kidney)", "assay": "Azide modification of mouse tissues by Ac4ManNAz administration and hydrogel fabrication using biological tissue", "type": "in vivo", "conditions": "intraperitoneal once a day for seven days", "protocol": "6 mg of Ac4ManNAz was dissolved in a mixed solvent of DMSO and PBS solution (58% DMSO) to prepare a Ac4ManNAz solution. 200 μL of the resulting Ac4ManNAz solution was intraperitoneally administered to a mouse (ICR, 5 weeks old, female) once a day for seven consecutive days for azide-modification of the mouse tissues. A week later, lung, cardiac muscle, skeletal muscle and kidney of the mouse were resected. The resected tissues were allowed to react with 100 μM of carboxyrhodamine 110 DBCO for an hour, then added with a PBS solution, vortexed and left to stand still for 10 minutes. This operation was repeated for 3 times. As control, tissues resected from a mouse that was not administered with the Ac4ManNAz solution were allowed to react with carboxyrhodamine 110 DBCO for an hour. […] In order to carry out gelation reaction using mouse tissues, the Ac4ManNAz solution was administered to a mouse in the same manner as described above and lung, brain, muscle tissue, kidney, heart and liver were resected from the mouse."}, "[3]": {"system": "C2C12 cells", "assay": "Azide modification of cell surface by sugar metabolism of Ac4ManNAz, detected with carboxyrhodamine 110 DBCO", "type": "cell-based, mouse", "protocol": "C2C12 cells were cultured in a DMEM medium containing 100 μM of Ac4ManNAz for 3 days to allow biosynthesis of azide-modified sialic acid at the end of the glycan of the cell membrane protein via cell sugar metabolism reaction of Ac4ManNAz. The cultured cells were washed with PBS twice. To confirm whether an azide group was introduced, carboxyrhodamine 110 DBCO (final concentration 5 μM) was added to the medium and allowed to react in the CO2 incubator for an hour. Subsequently, the cells were washed with PBS twice, to which a live cell imaging buffer (composition of the solution: 140 mM NaCl, 2.5 mM KCl, 1.8 mM CaCl2), 1.0 mM MgCl2 and 20 mM HEPES pH 7.4) was added to observe the cells with a confocal microscope."}}, "data": [{"molecule": "CC(=O)OC[C@H]1OC(OC(C)=O)[C@@H](NC(=O)CN=[N+]=[N-])[C@@H](OC(C)=O)[C@@H]1OC(C)=O", "note": "(some centres unmarked) [Ac4ManNAz]", "values": [{"measurement": "amount applicable without having toxicity to cells", "setting": "[1]; WST-1", "result": "5 to 100", "unit": "µM"}, {"measurement": "cell viability", "setting": "[1]; WST-1, all concentrations (0-1 mM), one day", "result": "≥ 90", "unit": "%"}, {"measurement": "azide modification of tissues in living body (FITC-derived green fluorescence after bAlg-DBCO-FITC)", "setting": "[2]", "result": "green fluorescence was observed in all of the tissues"}, {"measurement": "carboxyrhodamine 110-derived green fluorescence of cells", "setting": "[3]; C2C12 cells cultured with 100 μM for 3 days, confocal microscope", "result": "strong green fluorescence was observed only on the surface of the cell membrane"}, {"measurement": "concentration that allows a maximum amount of azide groups to be introduced into the cell surface (fluorescence intensity plateau)", "setting": "[3]; C2C12 cells, carboxyrhodamine 110 DBCO", "result": 100, "unit": "µM"}]}]}
